Where “and” joins values, the source holds several entries; their conditions need not be identical. Equal entries are not always repeated.
What was measured:
TNF-α = TNF-α in BALF of M. pneumoniae-infected mice (ELISA); assay type: in vivo, BALB/c mice; settings: for TNF-α in BALF (AV): group AV; for TNF-α in BALF: individual mice
Description: Adult BALB/c mice (20–22 g) were divided into a control group, a positive group, and compound 16C groups at low (20 mg/kg), medium (40 mg/kg), and high-dose (80 mg/kg) levels and oral and intramuscular tiamulin treatment groups (40 mg/kg). We formulated the above dose range based on the dose at which tiamulin was approved for injection (10–20 mg/kg) and the dose previously reported (45 mg/kg) ([EMA, 1999]; [Xiao et al., 2016]). In summary, we selected similar doses for compound 16C in vivo study. 40 mg/kg was used as an intermediate value, one-half of it as a low dose, and two times of it as a high dose. To prepare the challenge solution, logarithmic phase culture suspensions were centrifuged at 1700 g for 10 min, and the pellets were suspended in sterile PBS to obtain 1 × 10^9 CFU/mL. Before the challenge, mice were anesthetized with tribromoethanol (250 mg/kg, IP). Mice in the control groups were intratracheally inoculated with sterile PBS, whereas mice in the other groups were intratracheally challenged with 50 μL (1 × 10^9 CFU/mL) M. pneumoniae suspension once a day for 3 days. Compound 16C and tiamulin (tiamulin-IM group) dissolved using the method mentioned in pharmacokinetic studies, and the tiamulin fumarate soluble powder was dissolved in ddH2O for oral administration. After the final challenge, antibiotics were administered at low, medium, and high-dose levels (see above) at 10 a.m. and 10 p.m. daily for 4 consecutive days. Normal saline containing 5% DMSO and 5% Tween-80 was administered as control and positive groups by thigh intramuscular injection. To compare the efficacy of compound 16C and tiamulin under the same route of administration, we used the original tiamulin for intramuscular administration in the same formulation. On the other hand, tiamulin fumarate soluble powder, approved for oral administration to treat animal mycoplasma diseases in China, was administered to mice by gavage. Based on a clinical study of lefamulin in community-acquired bacterial pneumonia (CABP), subjects were administered twice a day and the 96 ± 24 h of starting treatment was an essential point for early clinical response (ECR) ([Paukner et al., 2022]). We therefore stopped treatment at 96 h and sampled at 192 h to explore whether the disease worsened after cessation of treatment. Bronchoalveolar lavage fluid (BALF) and lungs were collected at 0, 96, 192 h (Samples of 0 h were collected before starting treatment, and mice were fed ad libitum without drug treatment during 96–192 h) after the first dose, BALF for cytokine and cytological analysis and lung for histopathological evaluation.
Bronchoalveolar lavage was performed according to a standardized method ([Van Hoecke et al., 2017]). BALF was obtained following infusion of 0.5 mL PBS via tracheal cannulation into the lung twice (total 1 mL), and 200 µL was used for mycoplasma counts. The remaining BALF was centrifuged at 300 g for 10 min to separate the debris. The supernatants were stored at −80°C, and the debris was resuspended in the same volume of PBS containing red blood cell lysis buffer. A hemocytometer was used to count total cell numbers in BALF, and cell smears (Diff-Quik staining) were prepared to calculate the percentages of neutrophils, macrophages, and lymphocytes. IFN-γ, TNF-α, and CXCL1 levels in BALF samples were assessed using commercial ELISA kits using guidelines recommended by the manufacturer (Elabscience, Wuhan, China). Parallel data for each experimental group at each time point were obtained from six different mice.

[1] = tested on: Mycoplasma pneumoniae strain M129 (ATCC 29342); assay: Time-kill curves; assay type: cell-based; parameters: M. pneumoniae count in time-kill curve: unit not given here
In short: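 Strain grown at 37 °C, 5% CO2 in modified SP-4 broth (pH 7.4, 20% FBS). Cultures incubated 72 h, sampled every 12 h, 10-fold serially diluted and plated on SP-4 agar; colonies counted after 7 d. Three repeats.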

[2] = tiamulin 40 mg/kg IM, 96 h, listed as Tiamulin-IM

C=C[C@]1(C)C[C@@H](OC(=O)CSCCN(CC)CC)[C@]2(C)[C@H](C)CC[C@]3(CCC(=O)[C@H]32)[C@@H](C)[C@@H]1O [tiamulin, Tiamulin, reference compound]
TNF-α in BALF (AV) (TNF-α; [2]): 25.628 pg/mL
TNF-α in BALF (AV) (TNF-α; tiamulin 40 mg/kg IM, 96 h, listed as TiamulinIM): 25.4267 pg/mL
TNF-α in BALF (TNF-α; [2]): 36.6513 pg/mL and 20.2192 pg/mL and 19.4095 pg/mL and 27.905 pg/mL and 23.325 pg/mL and 26.258 pg/mL
TNF-α in BALF (AV) (TNF-α; tiamulin 40 mg/kg IM, 192 h): 10.6403 pg/mL
TNF-α in BALF (TNF-α; tiamulin 40 mg/kg IM, 192 h, listed as Tiamulin-IM): 0.9088 pg/mL and 8.569 pg/mL and 21.5375 pg/mL and 21.2768 pg/mL
TNF-α in BALF (AV) (TNF-α; tiamulin 40 mg/kg PO (fumarate soluble powder), 96 h): 17.9906 pg/mL
TNF-α in BALF (AV) (TNF-α; tiamulin 40 mg/kg PO (fumarate soluble powder), 192 h): 9.318 pg/mL
M. pneumoniae count in time-kill curve ([1]; 1×MIC, time 0): 6.339
M. pneumoniae count in time-kill curve ([1]; 1×MIC, time 12): 5.698
M. pneumoniae count in time-kill curve ([1]; 1×MIC, time 24): 6.253
M. pneumoniae count in time-kill curve ([1]; 1×MIC, time 36): 5.423
M. pneumoniae count in time-kill curve ([1]; 1×MIC, time 48): 4.896
M. pneumoniae count in time-kill curve ([1]; 1×MIC, time 60): 5.29
M. pneumoniae count in time-kill curve ([1]; 1×MIC, time 72): 4.787
M. pneumoniae count in time-kill curve ([1]; 2×MIC, time 0): 6.339
M. pneumoniae count in time-kill curve ([1]; 2×MIC, time 12): 6.4123
M. pneumoniae count in time-kill curve ([1]; 2×MIC, time 24): 6.433
M. pneumoniae count in time-kill curve ([1]; 2×MIC, time 36): 4.77
M. pneumoniae count in time-kill curve ([1]; 2×MIC, time 48): 4.196
M. pneumoniae count in time-kill curve ([1]; 2×MIC, time 60): 3.827
M. pneumoniae count in time-kill curve ([1]; 2×MIC, time 72): 3.91
M. pneumoniae count in time-kill curve ([1]; 4×MIC, time 0): 6.339
M. pneumoniae count in time-kill curve ([1]; 4×MIC, time 12): 6.61
M. pneumoniae count in time-kill curve ([1]; 4×MIC, time 24): 6.296
M. pneumoniae count in time-kill curve ([1]; 4×MIC, time 36): 3.841
M. pneumoniae count in time-kill curve ([1]; 4×MIC, time 48): 3.684
M. pneumoniae count in time-kill curve ([1]; 4×MIC, time 60): 3.889
M. pneumoniae count in time-kill curve ([1]; 4×MIC, time 72): 3.638
M. pneumoniae count in time-kill curve ([1]; 8×MIC, time 0): 6.339
M. pneumoniae count in time-kill curve ([1]; 8×MIC, time 12): 6.119
M. pneumoniae count in time-kill curve ([1]; 8×MIC, time 24): 6.148
M. pneumoniae count in time-kill curve ([1]; 8×MIC, time 36): 3.952
M. pneumoniae count in time-kill curve ([1]; 8×MIC, time 48): 3.772
M. pneumoniae count in time-kill curve ([1]; 8×MIC, time 60): 3.839
M. pneumoniae count in time-kill curve ([1]; 8×MIC, time 72): 3.776
M. pneumoniae count in time-kill curve ([1]; 16×MIC, time 0): 6.339
M. pneumoniae count in time-kill curve ([1]; 16×MIC, time 12): 6.238
M. pneumoniae count in time-kill curve ([1]; 16×MIC, time 24): 5.56
M. pneumoniae count in time-kill curve ([1]; 16×MIC, time 36): 4
M. pneumoniae count in time-kill curve ([1]; 16×MIC, time 48): 3.739
M. pneumoniae count in time-kill curve ([1]; 16×MIC, time 60): 3.621
M. pneumoniae count in time-kill curve ([1]; 16×MIC, time 72): 3.801
M. pneumoniae count in time-kill curve ([1]; 32×MIC, time 0): 6.339
M. pneumoniae count in time-kill curve ([1]; 32×MIC, time 12): 6.569
M. pneumoniae count in time-kill curve ([1]; 32×MIC, time 24): 5.262
M. pneumoniae count in time-kill curve ([1]; 32×MIC, time 36): 3.833
M. pneumoniae count in time-kill curve ([1]; 32×MIC, time 48): 3.266
M. pneumoniae count in time-kill curve ([1]; 32×MIC, time 60): 3.249
M. pneumoniae count in time-kill curve ([1]; 32×MIC, time 72): 3.425
M. pneumoniae count in time-kill curve ([1]; 64×MIC, time 0): 6.339
M. pneumoniae count in time-kill curve ([1]; 64×MIC, time 12): 6.625
M. pneumoniae count in time-kill curve ([1]; 64×MIC, time 24): 4.23
M. pneumoniae count in time-kill curve ([1]; 64×MIC, time 36): 3.61
M. pneumoniae count in time-kill curve ([1]; 64×MIC, time 48): 3.065
M. pneumoniae count in time-kill curve ([1]; 64×MIC, time 60): 3.16
M. pneumoniae count in time-kill curve ([1]; 64×MIC, time 72): 3.29
concentration at which bactericidal effect was achieved ([1]; static time-kill, 72 h): 64 × MIC
